According to patent US20250100973A1, “DIIMIDE DERIVATIVE, AND PREPARATION METHOD THEREFOR AND USE THEREOF” (XIANGBEI WELMAN PHARMACEUTICAL CO., LTD., priority 2022, published 2025):
Read-outs that look alike come from different tables or passages of the source.

Experiments:
[1] = test system: HL-60 human leukemia cells; experiment: In vitro antiproliferative activity (resazurin, 96 h); type: cell-based; settings: read-out: IC50 grade of inhibitory effect on tumor cells, HL-60
Experimental: (§1) Objective: to test the antiproliferative activity of the compound in the present disclosure against a variety of tumor cells. […] Amonafide and lomustine were commercially available. Test cells: human colon cancer cells (HT-29, COLO 205), human lung cancer cells (NCI-H460, A549), and human leukemia cells (HL-60, U-937). Test methods: each tumor cell was processed separately. Cells were cultured in a culture medium at 37° C. for 24 h for later use. The cells in the exponential growth phase were harvested, treated with trypsin to prepare a cell suspension, the cell suspension was centrifuged, and then the cell pellet was resuspended in a small amount of fresh culture medium as a stock cell solution. A 96-well plate was taken, and blank control groups, cell control groups and compound treatment groups were set up. […] The remaining wells were filled with 200 μL of 10% PBS. The plate was placed in an incubator overnight. 100 μL of each test compound at different dilution concentrations was added into each well of the compound treatment groups, 10 and the dilution concentrations of the compound were as shown in Table 2. […] After adding the drug, the plate was placed in an incubator to be cultured for 96 hours, 22 μL of resazurin sodium solution (Alarm blue, SIGMA R7017) was added into each well, and the plate was returned to the incubator to be cultured for another 4 h. The plate was shaken for 10 s after being taken out. A fluorescence value of each well was tested at 530/590 nm. The above operations were repeated for three times. The IC50 value of each test compound was calculated with the Prism7 software. The IC50 was divided into different grades according to value, that is: […]

[2] = test system: A549 human lung cancer cells; experiment: as above; type: cell-based; settings: read-out: IC50 grade of inhibitory effect on tumor cells, A549
Experimental: as §1

[3] = test system: NCI-H460 human lung cancer cells; experiment: as above; type: cell-based; settings: read-out: IC50 grade of inhibitory effect on tumor cells, NCI-H460
Experimental: as §1

[4] = test system: HT-29 human colon cancer cells; experiment: as above; type: cell-based; settings: read-out: IC50 grade of inhibitory effect on tumor cells, HT-29
Experimental: as §1

[5] = test system: COLO 205 human colon cancer cells; experiment: as above; type: cell-based; settings: read-out: IC50 grade of inhibitory effect on tumor cells, COLO 205
Experimental: as §1

[6] = test system: U-937 human leukemia cells; experiment: as above; type: cell-based; settings: read-out: IC50 grade of inhibitory effect on tumor cells, U-937
Experimental: as §1

[7] = test system: COLO 205 transplanted tumor; experiment: In vivo antitumor effect in COLO 205 transplanted tumor model; parameters: species or system BALB/c nude mice; settings: nude mice, COLO 205 xenograft, intragastric 10 mg/kg once a day, 21 times, last day
Experimental: Objective: to further test the in vivo antitumor effects of compounds of the present disclosure
Test compounds: I-01, I-08.
Test animals: 5-week-old female BALB/c nude mice were fed normally for 7 days, and mice with good physical conditions were selected for experiments.
Tumor cells: human colon cancer cells COLO 205 were subjected to cell culture in a RPMI-1640 medium containing 10% fetal bovine serum. The passaging was carried out for 1-2 times a week, with a passaging ratio of 1:3 to 1:6.
Modeling and grouping: COLO 205 cells in a logarithmic growth phase were harvested and injected into the anterior right mammary fat pad of nude mice with an injection volume of 5×10^6 cells per animal to establish a COLO 205 transplanted tumor model. The animal status was observed regularly, tumor diameter was measured, and tumor volume was calculated. After the tumor volume reached approximately 150 mm^3, tumor-bearing mice in good health and with similar tumor volumes were selected and randomly divided into a solvent control group, an I-01 group, and an I-08 group.
Administration: each test compound was dissolved in solvent, and each animal group was treated with corresponding compounds or blank solvent, respectively. The administration method was intragastric administration, with a dosage of 10 mg/kg, once a day, and a total of 21 times.
Result: on the last day of the experiment, tumor diameter and tumor weight were measured, tumor growth inhibition rate (GI) and tumor weight inhibition rate (IR) were calculated.
Tumor growth inhibition rate=100%×[1−(Tvt−Tvini)÷(Cvt−Cvini)], where Tvt represents tumor volume of the treatment group at the end of the experiment, Tvini represents initial tumor volume of the treatment group, Cvt represents tumor volume of the solvent control group at the end of the experiment, and Cvini represents initial tumor volume of the solvent control group.
Tumor weight inhibition rate=100%×(Cw−Tw)÷Cw, where Cw represents tumor weight of the solvent control group at the end of the experiment, and Tw represents tumor weight of the treatment group at the end of the experiment.

[8] = Homo sapiens, HL-60, 96 h culture, resazurin fluorescence
[9] = Homo sapiens, A549, 96 h culture, resazurin fluorescence
[10] = Homo sapiens, NCI-H460, 96 h culture, resazurin fluorescence
[11] = Homo sapiens, HT-29, 96 h culture, resazurin fluorescence
[12] = Homo sapiens, COLO 205, 96 h culture, resazurin fluorescence
[13] = Homo sapiens, U-937, 96 h culture, resazurin fluorescence
[14] = HL-60, 96 h culture, resazurin fluorescence
[15] = A549, 96 h culture, resazurin fluorescence
[16] = NCI-H460, 96 h culture, resazurin fluorescence
[17] = HT-29, 96 h culture, resazurin fluorescence
[18] = COLO 205, 96 h culture, resazurin fluorescence
[19] = U-937, 96 h culture, resazurin fluorescence

SMILES | IC50 [1, 8] [µM] | IC50 [2, 9] [µM] | IC50 [3, 10] [µM] | IC50 [4, 11] [µM] | IC50 [5, 12] [µM] | IC50 [6, 13] [µM] | further results
CC(C)(C)OC(=O)NCCCNCCCN1C(=O)c2cccc3cc([N+](=O)[O-])cc(c23)C1=O [Cob281] | 5 to 10 | 5 to 10 | 11 to 20 | 5 to 10 | 11 to 20 | 5 to 10 | –
CCN(CC)C(=O)N(C)CCNCN1C(=O)c2cccc3c(OC)ccc(c23)C1=O [Compound I-06] | 1 to 5 | 1 to 5 | 5 to 10 | 1 to 5 | 5 to 10 | 1 to 5 | –
CN(C)CCN1C(=O)c2cccc3cc(N)cc(c23)C1=O [Amonafide] | 5 to 10 | 1 to 5 | 11 to 20 | 11 to 20 | 5 to 10 | 11 to 20 | –
CN(CCNC(=O)N(CCCl)N=O)CCN1C(=O)c2cccc3cc([N+](=O)[O-])cc(c23)C1=O [Compound I-01] | – | – | – | – | – | – | Tumor growth inhibition rate (%) [7]: 75.3%; Tumor weight inhibition rate (%) [7]: 69.3%; IC50 [1, 14]: < 0.5 µM; IC50 [2, 15]: 0.5 to 1 µM; IC50 [3, 16]: < 0.5 µM; IC50 [4, 17]: < 0.5 µM; IC50 [5, 18]: < 0.5 µM; IC50 [6, 19]: < 0.5 µM
CC(C)(C)OC(=O)NCCCN1CCN(CCCN2C(=O)c3cccc4cc([N+](=O)[O-])cc(c34)C2=O)CC1 [Cob280] | 5 to 10 | 11 to 20 | 11 to 20 | 5 to 10 | 11 to 20 | 5 to 10 | –
CN(C)C(=O)N(C)CCCNCN1C(=O)c2cccc3cccc(c23)C1=O [Compound I-07] | 1 to 5 | 5 to 10 | 1 to 5 | 5 to 10 | 1 to 5 | 5 to 10 | –
O=NN(CCCl)C(=O)N1CCN(CCN2C(=O)c3cccc4cc([N+](=O)[O-])cc(c34)C2=O)CC1 [Compound I-08] | – | – | – | – | – | – | Tumor growth inhibition rate (%) [7]: 43.5%; Tumor weight inhibition rate (%) [7]: 31.2%; IC50 [1, 14]: 1 to 5 µM; IC50 [2, 15]: 0.5 to 1 µM; IC50 [3, 16]: 1 to 5 µM; IC50 [4, 17]: 1 to 5 µM; IC50 [5, 18]: 0.5 to 1 µM; IC50 [6, 19]: 0.5 to 1 µM
O=NN(CCCl)C(=O)NCCCCN1C(=O)c2cccc3cccc(c23)C1=O [Compound 1d] | – | – | – | – | – | – | IC50 ([1]; Homo sapiens, HL-60, 96 h): 21 to 50 µM; IC50 ([2]; Homo sapiens, A549, 96 h): 21 to 50 µM; IC50 ([3]; Homo sapiens, NCI-H460, 96 h): 51 to 100 µM; IC50 ([4]; Homo sapiens, HT-29, 96 h): 21 to 50 µM; IC50 ([5]; Homo sapiens, COLO 205, 96 h): 21 to 50 µM; IC50 ([6]; Homo sapiens, U-937, 96 h): 11 to 20 µM
O=NN(CCCl)C(=O)NCCN1C(=O)c2cccc3cc([N+](=O)[O-])cc(c23)C1=O [Compound 1] | – | – | – | – | – | – | IC50 ([1]; Homo sapiens, HL-60, 96 h): 11 to 20 µM; IC50 ([2]; Homo sapiens, A549, 96 h): 5 to 10 µM; IC50 ([3]; Homo sapiens, NCI-H460, 96 h): 11 to 20 µM; IC50 ([4]; Homo sapiens, HT-29, 96 h): 21 to 50 µM; IC50 ([5]; Homo sapiens, COLO 205, 96 h): 21 to 50 µM; IC50 ([6]; Homo sapiens, U-937, 96 h): 21 to 50 µM
CCN(CCNC(=O)N(C)CC)CCN1C(=O)c2cccc3cc([N+](=O)[O-])cc(c23)C1=O [Compound I-04] | 1 to 5 | 1 to 5 | 1 to 5 | 1 to 5 | 5 to 10 | 1 to 5 | –
O=NN(CCCl)C(=O)NC1CCCCC1 [Lomustine] | 21 to 50 | > 100 | 51 to 100 | 51 to 100 | > 100 | 11 to 20 | –
